Results as given in patent US20140094413A1, “HEPATOCYTE GROWTH FACTOR (HGF) MIMICS AS THERAPEUTIC AGENTS” (WASHINGTON STATE UNIVERSITY, priority 2012, published 2014).
Several values for one entry are separate records, joined by “and”; a condition that tells them apart may be missing. Equal entries are not always repeated. Entries after “also recorded” stand apart in the source; their conditions may differ. Where a SMILES comes first, the peptide text is derived from it. [ ]: non-standard residue; d: D form. The star is where a group is joined. Hexanoyl = CCCCCC(=O)*; Ahx = NCCCCCC(=O)O

Columns and labels:
aged rats = experiment: Morris water maze, aged rat model; type: in vivo; conditions: aged rats of mixed sex; oral Dihexa 2 mg/kg/day, 8 days
Experimental: Swim speed was determined from these values.

c-Met = experiment: Augmentation of HGF-dependent c-Met phosphorylation in HEK293 cells; type: cell-based, human; conditions: HEK 293 cells treated with HGF+/−Dihexa
Experimental: augmentation of HGF-dependent c-Met phosphorylation in HEK293 cells, or 2) augmentation of HGF-dependent cell scattering in MDCK cells. All the compounds in Family one were tested using the c-Met phosphorylation assay. […]
Human embryonic kidney cells 293 (HEK293), Madin Darby canine kidney cells (MDCK), and B16F10 murine melanoma cells were grown in DMEM, 10% fetal bovine serum (FBS). Cells were grown to 90-100% confluency before use. For most but not all studies HEK and MDCK cells were serum starved for 24 hours prior to the initiation of drug treatment.
HEK293 cells were seeded in 6 well tissue culture plates and grown to 95% confluency in DMEM containing 10% FBS. The cells were serum deprived for 24 hours prior to the treatment to reduce the basal levels of phospho-Met. […] The lysate was clarified by centrifugation at 15,000 g for 15 minutes, protein concentrations were determined using the BCA total protein assay, and then appropriate volumes of the lysates were diluted with 2× reducing Laemmli buffer and heated for ten minutes at 95° C. […] Proteins were visualized using the Supersignal West Pico Chemiluminescent Substrate system (Pierce, Fenton, Mo.) and molecular weights determined by comparison to protein ladders (BenchMark, Invitrogen; and Kaleidoscope, BioRad). Images were digitized and analyzed using a UVP phosphoimager.

human HGF = molecular target: T1, human HGF (Homo sapiens, UniProt P14210); experiment: HGF dimerization; type: biochemical; conditions: 30 minutes in the presence of heparin; N=6
T1 construct: purchased R&D Systems (Minneapolis, Minn.)
T1 sequence (P14210 32-728): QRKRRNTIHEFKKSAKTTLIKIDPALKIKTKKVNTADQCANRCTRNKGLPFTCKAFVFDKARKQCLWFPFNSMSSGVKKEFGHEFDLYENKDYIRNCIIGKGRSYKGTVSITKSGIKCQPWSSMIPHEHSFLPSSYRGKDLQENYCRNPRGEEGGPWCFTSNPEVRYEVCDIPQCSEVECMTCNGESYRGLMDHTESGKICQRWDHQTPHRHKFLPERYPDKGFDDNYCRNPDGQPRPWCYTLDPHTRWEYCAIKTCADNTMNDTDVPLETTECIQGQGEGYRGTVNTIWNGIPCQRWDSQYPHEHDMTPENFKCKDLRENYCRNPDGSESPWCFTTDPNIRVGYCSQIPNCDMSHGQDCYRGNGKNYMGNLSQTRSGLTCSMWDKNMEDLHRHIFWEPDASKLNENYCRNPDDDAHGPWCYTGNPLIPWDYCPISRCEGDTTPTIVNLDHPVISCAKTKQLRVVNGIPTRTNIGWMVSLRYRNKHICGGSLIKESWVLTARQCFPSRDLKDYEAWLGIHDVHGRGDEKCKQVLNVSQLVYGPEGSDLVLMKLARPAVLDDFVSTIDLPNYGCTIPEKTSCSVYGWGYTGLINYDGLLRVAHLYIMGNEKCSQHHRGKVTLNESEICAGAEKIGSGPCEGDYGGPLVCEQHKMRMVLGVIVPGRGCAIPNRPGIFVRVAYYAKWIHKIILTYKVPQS
Experimental: HGF dimerization was assessed using PAGE followed by silver staining (Kawas et al., 2011). Human HGF at a concentration of 0.08 ng/μl with or without 6-AH analogs was incubated with heparin at a final concentration of 5 μg/ml. Loading buffer was then added to each sample and the mixture separated by native PAGE using gradient Criterion XT precast gels (4-12% Bis-Tris; Biorad Laboratories, Hercules, Calif.). Next the gel was silver stained for the detection of the HGF monomers and dimers. Bands were quantitated from digital images using a UVP phosphoimager (Upland, Calif.).

[1] = test system: Dissociated hippocampal neurons; experiment: Neuroprotection from growth factor deprivation; type: cell-based; conditions: starved 72 hrs +/−HGF 5 ng/ml; Dihexa 10^−10 M and 10^−8M
Experimental: FIG. 39. […] Dissociated hippocampal neurons were starved for 72 hrs+/−HGF at sub-threshold concentrations 5 ng/ml and or Dihexa at 2 different concentrations 10^−10 M and 10^−8M. (**p<0.001,***p<0.0001; Mean+/−SEM).

[2] = test system: Dissociated hippocampal neurons; experiment: Neuroprotection from oxidative stress (H2O2); type: cell-based; conditions: 100 μM H2O2 24 hrs +/−HGF 5 ng/ml; Dihexa 10^−10 M and 10^−8M
Experimental: FIG. 40. […] Dissociated hippocampal neurons were treated with 100 μM H2O2 for 24 hrs+/−HGF at sub-threshold concentrations 5 ng/ml and or Dihexa at 2 different concentrations 10^−10 M and 10^−8M. (*p<0.05,**p<0.01).

6-OHDA lesioned rats = experiment: Unilateral 6-OHDA substantia nigra lesion model; type: in vivo, rat
Experimental: FIG. 41. Dihexa restores performance in the rope hang test. Two weeks after producing a unilateral lesion with 6-OHDA in the substantia nigra, rats were treated with either 0.5 mg/kg of Dihexa or equivalent volumes of the vehicle ip.
FIG. 42A-C. Dihexa restored normal walking in the gait analysis test. Two weeks after producing a unilateral lesion with 6-OHDA in the substantia nigra, rats were treated with either 0.5 mg/kg of Dihexa or equivalent volumes of the vehicle ip. […] A, animal foot prints; B, left stride length; C, right stride length. Note that the dragging of the left hind leg observed in the untreated lesioned rats was absent from the treated group.
FIG. 43. Dihexa restores tyrosine hyroxlase staining, which is indicative of the presence of dopaminiergic neurons in the substantia nigra (SN). Two weeks after the induction of an unilateral 6-OHDA lesion, rats were treated with either 0.5 mg/kg Dihexa or an equivalent volume of vehicle ip. for 34 days.

[3] = test system: CA1 neurons in coronal slices of rat hippocampus; experiment: Hippocampal long-term potentiation with theta burst stimulation; type: cell-based; conditions: Dihexa 1 μM applied 10 minutes prior to TBS
Experimental: FIG. 45. Effect of Dihexa (Hex) on hippocampal long-term potentiation (LTP) generated with theta burst (TBS) stimulation. LTP was monitored at CA1 neurons in coronal slices of rat hippocampus. Dihexa (1 μM) was applied 10 minutes prior to TBS. 1N=4. Dihexa application augmented LTP.

[4] = Dihexa plasma levels after IV infusion; type: in vivo, rat
Experimental: FIG. 46. Dihexa plasma levels after intravascular (IV) infusion. Dihexa was administered to adult male Sprague Dawley rats at 10 mg/kg. Plasma sample were collected and analyzed by HPLC-MS. Plasma data were modeled by non-compartmental analysis using WinNonlin® software.

[5] = 0.5 mg/kg ip, started two weeks after lesion

## CCCCCC(=O)N[C@@H](Cc1ccc(O)cc1)C(=O)N[C@H](C(=O)NCCCCCC(N)=O)[C@@H](C)CC [Dihexa, N-hexanoic-Tyr-Ile-(6)-aminohexanoic amide] (Hexanoyl-Tyr-Ile-[Ahx]-NH2)
Aged rats
  Water maze performance of aged rats vs untreated controls: preformed significantly better in the water maze than untreated rats; also recorded: performed significantly better than untreated controls; also recorded: significantly improved water maze performance
c-Met
  Effect on HGF activation (phosphorylation) of c-Met: dramatically augment the ability of HGF to activate c-Met; also recorded: work synergistically to activate c-Met; also recorded: enhances the activity of HGF shifting its concentration curve to the left
Human HGF
  HGF dimerization: blocks HGF dimerization
[1]
  Protection of neurons from growth factor deprivation: protects neurons from growth factor deprivation
[2]
  Protection of neurons from oxidative stress: protects neurons from oxidative stress
6-OHDA lesioned rats; 0.5 mg/kg ip for 34 days / six weeks
  Tyrosine hydroxylase staining in the substantia nigra: dramatic restoration of tyrosine hydroxylase (TH) staining; also recorded: completely restored the tyrosine hydroxylase staining in the SN
6-OHDA lesioned rats; [5]
  Gait analysis, stride length: recovery of normal motor function; also recorded: completely restored the normal stride length
  Rope hang test performance: completely restores performance in the rope hang test; also recorded: completely restored the performance of the treated animals on the rope hang test
6-OHDA lesioned rats; three months of Dihexa treatment
  Recovery of SN TH staining: ~100%
[3]
  Long-term potentiation: enhances LTP; also recorded: augmented LTP
[4]; IV 10 mg/kg, adult male Sprague Dawley rats, non-compartmental analysis, 10 mg/kg
  Elimination (circulating) half-life t1/2: > 12 days and 12.68 days
[4]; urine
  Excretion: excreted intact in the urine
